In one series the test system is Fusarium culmorum. Kind of series: Antifungal activity against Fusarium culmorum infected durum wheat assessed as reduction in deoxynivalenol content in crop. The series is classed as functional. On the set-up: scale not given: the % may be the effect or the level left.
In series [1] the test system is Fusarium graminearum. Description: Antifungal activity against Fusarium graminearum isolate 137 after 8 hr by microscopic analysis. Type of series: functional, organism-based. To be noted: isolate 137, 8 h, pooled result: one value given for 5 cell lines, strains, targets or settings.
Series [2] can be described thus: Toxicity in po dosed Rattus norvegicus (rat). To be noted: in vivo. The series is classed as organism-based.
Series [3] in a line: Selectivity ratio of relative toxicity against po dosed rat to relative efficacy against Gibberella zeae. To be noted: in vivo. Type of series: organism-based.
A further series concerns Rattus norvegicus. Description: Toxicity in po dosed Rattus norvegicus (rat) relative to metconazole. The series is classed as organism-based. To be noted: in vivo.
A short description of series [4]: Aqueous solubility of the compound assessed per 100 g at pH 7. Type of series: physicochemical. Particulars: buffer.
Series [5] concerns Fusarium graminearum. Kind of series: Antifungal activity against Fusarium graminearum after 8 hr by microscopic analysis relative to prothioconazole. The series is classed as functional.
Series [6] deals with Fusarium graminearum. Description: Growth inhibition of Fusarium graminearum isolate 74B at 10^-4 M after 14 days. The series is classed as functional. Particulars: 336 h, read-out: GI.
Series [7] in a line: Aqueous solubility of the compound assessed per 100 g. Type of series: physicochemical. Particulars: buffer.
Series [8] deals with Fusarium graminearum. Kind of series: Growth inhibition of Fusarium graminearum isolate 4527b at 10^-4 M after 14 days. The series is classed as functional. Particulars: 336 h, read-out: GI.
Series [9] concerns Fusarium graminearum. Kind of series: Growth inhibition of Fusarium graminearum isolate 106 at 10^-4 M after 14 days. Type of series: functional. To be noted: isolate 106, 336 h, read-out: GI.
Series [10] deals with Fusarium graminearum. Kind of series: Growth inhibition of Fusarium graminearum isolate 137 at 10^-4 M after 14 days. Type of series: functional. To be noted: isolate 137, 336 h, read-out: GI.
Series [11] concerns Fusarium graminearum. Description: Growth inhibition of Fusarium graminearum isolate 123 at 10^-4 M after 14 days. The series is classed as functional. Particulars: isolate 123, 336 h, read-out: GI.
The subject of series [12] is Fusarium graminearum. Kind of series: Growth inhibition of Fusarium graminearum isolate 102 at 10^-4 M after 14 days. The series is classed as functional. Particulars: isolate 102, 336 h, read-out: GI.
Series [13] relates to Fusarium graminearum. Description: Growth inhibition of Fusarium graminearum isolate 37 at 10^-4 M after 14 days. Particulars: isolate 37, 336 h, read-out: GI. The series is classed as functional.
Series [14] has as its system Fusarium graminearum. Description: Growth inhibition of Fusarium graminearum at >/= 0.001 M after 14 days. Type of series: functional, organism-based.

pEC50: −log10 of the molar value. Active and inactive are the calls of the source. The rule behind the calls is not given here.

For `Clc1ccc(C2(Cn3cncn3)CC(Br)CO2)c(Cl)c1` (stereo unspecified) [BROMUCONAZOLE], the Activity in the series on Fusarium culmorum turned out to be 43%.

For orientation: pEC50 means −log10 of the EC50, conventionally taken in molar units. What is called LD50 is the dose at which mortality reaches 50%. On to `OC(Cc1ccccc1Cl)(Cn1nc[nH]c1=S)C1(Cl)CC1` (stereo unspecified) [PROTHIOCONAZOLE], for which the pEC50 in the series on Fusarium graminearum [1] is 4.49. In addition, the LD50 in [2] is 6200 mg/kg. The selectivity ratio in series [3] was found to be 10.3. Also, the “fold change (FC)” value in the series on Rattus norvegicus is on record as 0.1.

`CC1(C)CCC(Cc2ccc(Cl)cc2)C1(O)Cn1cncn1` (stereo unspecified) [METCONAZOLE]: in [4], the solubility is recorded as 3 mg. The pEC50 with Fusarium graminearum [1] is 3.75. The “fold change (FC)” value in the series on Fusarium graminearum [5] amounted to 0.27. In series [2], this compound displayed a 50% lethal dose (LD50) of 660 mg/kg. For the same compound, the selectivity ratio in [3] stood at 0.27.

Turning to `CCCN(CCOc1c(Cl)cc(Cl)cc1Cl)C(=O)n1ccnc1` [PROCHLORAZ], the Activity in the series with Fusarium culmorum turned out to be 43%.

Regarding `Fc1ccc([C@]2(Cn3cncn3)O[C@H]2c2ccccc2Cl)cc1` [EPOXICONAZOLE], the inhibition of growth at 100 µM was determined as 95.7% in the series on Fusarium graminearum [6]; 98% in the series with Fusarium graminearum [8]; 95.4% in the series with Fusarium graminearum [9]; 99.6% with Fusarium graminearum [10]; 95.9% in the series on Fusarium graminearum [11]; 97.1% in the series with Fusarium graminearum [12]. Also, the inhibition of growth at 100 µM with Fusarium graminearum [13] is 98.7%. For the same compound, the pEC50 in the series with Fusarium graminearum [1] was 1.97. This compound came in with a solubility in series [7] of 0.7 mg. For the same compound, the “fold change (FC)” value is given as 0 in the series on Fusarium graminearum [5] and 0.19 with Rattus norvegicus. In series [2], this compound displayed an LD50 of 3160 mg/kg.

As for `CC(C)(C)C(O)(CCc1ccc(Cl)cc1)Cn1cncn1` (stereo unspecified) [TEBUCONAZOLE], in the series on Fusarium graminearum [14], the “growth inhibition (GI)” value is “Active”. The compound also had a negative logarithm of the EC50 (pEC50) in the series with Fusarium graminearum [1] of 3.49. The compound further yielded a solubility in [7] of 3.6 mg. The Activity in the series on Fusarium culmorum stood at 43%. Besides, the “fold change (FC)” value in the series with Fusarium graminearum [5] turned out to be 0.15; in the series with Rattus norvegicus it was 0.35. Also, the LD50 in series [2] worked out at 1700 mg/kg. Also, the selectivity ratio in [3] is 0.44.

Source of the values: ChEMBL document CHEMBL3046744, “Comparison of the declining triazole sensitivity of Gibberella zeae and increased sensitivity achieved by advances in triazole fungicide development” (Crop Prot, 2007).
